Test system: 817829-284-R-J1-PDC complex spheroids, viability
Assay: Anticancer human tumor 817829-284-R-J1-PDC patient-derived colon adenocarcinoma cell line growth inhibition [GQUAD]
Details: for IC50: curve of first compound; for viability, T/C: stronger effect = lower value; active = viability on the fitted dose curve at most 10% of control; inactive = the rest
How it was run: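 Multi-cell-type spheroids of tumor cells with HUVEC and mesenchymal stem cells, treated with drug combinations. Concentrations descend in half-log steps from near clinical Cmax, or from 10 microM where Cmax is unknown; viability read-out.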

[1] = second compound 0.0316 µM, first compound 0.0316 µM
[2] = second compound 0.0316 µM, first compound 0.316 µM
[3] = second compound 0.1 µM, first compound 0.0316 µM
[4] = second compound 0.1 µM, first compound 0.316 µM
[5] = second compound 0.316 µM, first compound 0.0316 µM
[6] = second compound 0.316 µM, first compound 0.316 µM
[7] = second compound 1 µM, first compound 0.0316 µM
[8] = second compound 1 µM, first compound 0.316 µM
[9] = second compound 3.16 µM, first compound 0.0316 µM
[10] = second compound 3.16 µM, first compound 0.316 µM
[11] = second compound 10 µM, first compound 0.0316 µM
[12] = second compound 10 µM, first compound 0.316 µM
[13] = second compound 0.0316 µM, first compound 0.000999 µM
[14] = second compound 0.0316 µM, first compound 0.00316 µM
[15] = second compound 0.0316 µM, first compound 0.00999 µM
[16] = second compound 0.0316 µM, first compound 0.0999 µM
[17] = second compound 0.1 µM, first compound 0.000999 µM
[18] = second compound 0.1 µM, first compound 0.00316 µM
[19] = second compound 0.1 µM, first compound 0.00999 µM
[20] = second compound 0.1 µM, first compound 0.0999 µM
[21] = second compound 0.316 µM, first compound 0.000999 µM
[22] = second compound 0.316 µM, first compound 0.00316 µM
[23] = second compound 0.316 µM, first compound 0.00999 µM
[24] = second compound 0.316 µM, first compound 0.0999 µM
[25] = second compound 1 µM, first compound 0.000999 µM
[26] = second compound 1 µM, first compound 0.00316 µM
[27] = second compound 1 µM, first compound 0.00999 µM
[28] = second compound 1 µM, first compound 0.0999 µM
[29] = second compound 3.16 µM, first compound 0.000999 µM
[30] = second compound 3.16 µM, first compound 0.00316 µM
[31] = second compound 3.16 µM, first compound 0.00999 µM
[32] = second compound 3.16 µM, first compound 0.0999 µM
[33] = second compound 10 µM, first compound 0.000999 µM
[34] = second compound 10 µM, first compound 0.00316 µM
[35] = second compound 10 µM, first compound 0.00999 µM
[36] = second compound 10 µM, first compound 0.0999 µM
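Note: spheroids exposed to agents for 7 days before readout.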
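Throughout, for viability, T/C: percent viability relative to DMSO vehicle control taken as 100%.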

C=CC(=O)N1CCN(c2nc(=O)n(-c3c(C)ccnc3C(C)C)c3nc(-c4c(O)cccc4F)c(F)cc23)C(C)C1 (stereo unspecified) + Cc1[nH]c2ccc(F)cc2c1-c1nc2c3cccnc3c3ncccc3c2[nH]1
inactive: viability, T/C [1] 106% | viability, T/C (second compound 0.0316 µM, first compound 0.1 µM) 81% | viability, T/C [2] 109% | viability, T/C (second compound 0.0316 µM, first compound 1 µM) 74.4% | viability, T/C (second compound 0.0316 µM, first compound 3.16 µM) 106% | viability, T/C (second compound 0.0316 µM, first compound 10 µM) 97.5% | viability, T/C [3] 87.2% | viability, T/C (second compound 0.1 µM, first compound 0.1 µM) 90.1% | viability, T/C [4] 88.5% | viability, T/C (second compound 0.1 µM, first compound 1 µM) 91.2% | viability, T/C (second compound 0.1 µM, first compound 3.16 µM) 108% | viability, T/C (second compound 0.1 µM, first compound 10 µM) 92.8% | viability, T/C [5] 84.3% | viability, T/C (second compound 0.316 µM, first compound 0.1 µM) 102% | viability, T/C [6] 104% | viability, T/C (second compound 0.316 µM, first compound 1 µM) 101% | viability, T/C (second compound 0.316 µM, first compound 3.16 µM) 102% | viability, T/C (second compound 0.316 µM, first compound 10 µM) 104% | viability, T/C [7] 82.1% | viability, T/C (second compound 1 µM, first compound 0.1 µM) 97% | viability, T/C [8] 93.6% | viability, T/C (second compound 1 µM, first compound 1 µM) 97.6% | viability, T/C (second compound 1 µM, first compound 3.16 µM) 98.2% | viability, T/C (second compound 1 µM, first compound 10 µM) 79.8% | viability, T/C [9] 102% | viability, T/C (second compound 3.16 µM, first compound 0.1 µM) 99.3% | viability, T/C [10] 75.7% | viability, T/C (second compound 3.16 µM, first compound 1 µM) 68.2% | viability, T/C (second compound 3.16 µM, first compound 3.16 µM) 51.7% | viability, T/C (second compound 3.16 µM, first compound 10 µM) 32.4% | viability, T/C [11] 11.3% | viability, T/C (second compound 10 µM, first compound 0.1 µM) 18.4% | viability, T/C [12] 44.3% | viability, T/C (second compound 10 µM, first compound 1 µM) 15.1% | viability, T/C (second compound 10 µM, first compound 3.16 µM) 11.6% | viability, T/C (second compound 10 µM, first compound 10 µM) 17.1%
> 10000 nM: IC50 (second compound 0.0316 µM) | IC50 (second compound 0.1 µM) | IC50 (second compound 0.316 µM) | IC50 (second compound 1 µM)
3260 nM: IC50 (second compound 3.16 µM)
< 31.6 nM: IC50 (second compound 10 µM)

CC[C@@]1(O)C(=O)OCc2c1cc1n(c2=O)Cc2cc3c(CN(C)C)c(O)ccc3nc2-1 + Cc1[nH]c2ccc(F)cc2c1-c1nc2c3cccnc3c3ncccc3c2[nH]1
< 0.999 nM: IC50 (second compound 10 µM)
active: viability, T/C [36] 5.98% | viability, T/C [12] 5.1%
inactive: viability, T/C [13] 119% | viability, T/C [14] 84.5% | viability, T/C [15] 92.7% | viability, T/C [1] 51.8% | viability, T/C [16] 34.9% | viability, T/C [2] 26.6% | viability, T/C [17] 98.8% | viability, T/C [18] 104% | viability, T/C [19] 88.6% | viability, T/C [3] 70.9% | viability, T/C [20] 33.1% | viability, T/C [4] 27.1% | viability, T/C [21] 90% | viability, T/C [22] 111% | viability, T/C [23] 101% | viability, T/C [5] 63.6% | viability, T/C [24] 34.2% | viability, T/C [6] 26.1% | viability, T/C [25] 91.8% | viability, T/C [26] 110% | viability, T/C [27] 109% | viability, T/C [7] 64.8% | viability, T/C [28] 32.4% | viability, T/C [8] 29.1% | viability, T/C [29] 108% | viability, T/C [30] 111% | viability, T/C [31] 95.1% | viability, T/C [9] 41.9% | viability, T/C [32] 18.2% | viability, T/C [10] 15.7% | viability, T/C [33] 11% | viability, T/C [34] 22.5% | viability, T/C [35] 26.1% | viability, T/C [11] 7.2%
60.3 nM: IC50 (second compound 0.1 µM)
52.2 nM: IC50 (second compound 1 µM)
47.6 nM: IC50 (second compound 0.0316 µM)
26.5 nM: IC50 (second compound 3.16 µM)
51.7 nM: IC50 (second compound 0.316 µM)

CCc1c2c(nc3ccc(O)cc13)-c1cc3c(c(=O)n1C2)COC(=O)[C@]3(O)CC + Cc1[nH]c2ccc(F)cc2c1-c1nc2c3cccnc3c3ncccc3c2[nH]1
active: viability, T/C [16] 8.01% | viability, T/C [2] 4.19% | viability, T/C [20] 9.56% | viability, T/C [4] 4.38% | viability, T/C [24] 8.62% | viability, T/C [6] 5.24% | viability, T/C [28] 8.8% | viability, T/C [8] 4.41% | viability, T/C [9] 10.8% | viability, T/C [32] 5.28% | viability, T/C [10] 2.61% | viability, T/C [33] 6.96% | viability, T/C [34] 7.65% | viability, T/C [35] 4.74% | viability, T/C [11] 5.66% | viability, T/C [36] 3.66% | viability, T/C [12] 1.35%
inactive: viability, T/C [13] 65.2% | viability, T/C [14] 28.1% | viability, T/C [15] 30.3% | viability, T/C [1] 13.1% | viability, T/C [17] 51.3% | viability, T/C [18] 33.6% | viability, T/C [19] 27.8% | viability, T/C [3] 14.9% | viability, T/C [21] 43.5% | viability, T/C [22] 35.6% | viability, T/C [23] 23.6% | viability, T/C [5] 16.7% | viability, T/C [25] 43% | viability, T/C [26] 30.6% | viability, T/C [27] 24.6% | viability, T/C [7] 15% | viability, T/C [29] 30.3% | viability, T/C [30] 16.4% | viability, T/C [31] 13.8%
1.74 nM: IC50 (second compound 0.0316 µM)
1.01 nM: IC50 (second compound 0.1 µM)
< 0.999 nM: IC50 (second compound 0.316 µM) | IC50 (second compound 1 µM) | IC50 (second compound 3.16 µM) | IC50 (second compound 10 µM)

Reference: PubChem BioAssay AID2060503 (Molecular Pharmacology Branch, DTP, NCI, 2025)
